Experimental findings from patent publication US7410972B2, “Compounds” (AstraZeneca AB, priority 2001, dated 2008) are described below.

Tested on in one data set: not given
Test: not given
Conditions: not given
One may read the melting point as the temperature of the solid-liquid transition. The compound `O=S(=O)(Nc1nc(Cl)cnc1OCc1ccco1)c1ccc(Cl)s1` [Example 20, 5-Chloro-N-[6 chloro-3-(2-furanylmethoxy)-2-pyrazinyl]-2-thiophenesulphonamide] showed a melting point of 130 to 133 °C.

Regarding `Cc1cc(COc2ncc(Cl)nc2NS(=O)(=O)c2ccc(Cl)s2)no1` [Example 21, 5-Chloro-N-[6-chloro-3-(5-methyl-3-isoxazolylmethoxy)2-pyrazinyl]-2-thiophenesulphonamide], the melting point is 141 to 142 °C. The same measure, in the same setting: the result for `O=S(=O)(Nc1nc(Cl)cnc1OCc1ccccn1)c1ccc(Cl)s1` [Example 22] reads 171 to 172 °C; that for `Cc1cnc(NS(=O)(=O)c2ccc(Cl)s2)c(OCc2cccnc2)n1` [Example 23, 5-Chloro-N-[5-methyl-3-(3-pyridinylmethoxy)-2-pyrazinyl]-2-thiophenesulphonamide], 204 to 205 °C; that for `Cc1cnc(NS(=O)(=O)c2ccc(Cl)s2)c(OCc2cccnn2)n1` [Example 24, 5-Chloro-N-[5-methyl-3-(3-pyridazinylmethoxy)-2-pyrazinyl]-2-thiophenesulphonamide], 179 to 181 °C.

`O=S(=O)(Nc1nccnc1OCc1ccccn1)c1ccc(Cl)s1` [Example 25, 5-Chloro-N-[3-(2-pyridinylmethoxy)-2-pyrazinyl]-2-thiophenesulphonamide] displayed a melting point of 109 to 110 °C. Same read-out and setting: to `COc1nccnc1NS(=O)(=O)c1ccc(Cl)s1` [Example 26, 5-Chloro-N-(3-methoxy-2-pyrazinyl)-2-thiophenesulphonamide] belongs 119 to 120 °C; to `COc1nc(C)c(C)nc1NS(=O)(=O)c1ccc(Cl)s1` [Example 27, 5-Chloro-N-(5,6-dimethyl-3-methoxy-2-pyrazinyl)-2-thiophenesulphonamide], 95 to 96 °C; to `COc1nc(SCCN)cnc1NS(=O)(=O)c1ccc(Cl)s1` [Example 30, N-[5-{(2-Aminoethyl)sulpanyl}-3-methoxy-2-pyrazinyl]-5-chloro-2-thiophenesulphonamide], 192 to 194 °C. Take `COc1nc(C#N)cnc1NS(=O)(=O)c1ccc(Cl)s1` [Example 31, 5-Chloro-N-[5-cyano-3-methoxy-2-pyrazinyl]-2-thiophenesulphonamide]: the melting point was in the range of 218 to 219 °C.

The target of the next data set is T1, human recombinant CCR4 receptor (Homo sapiens, UniProt P51679).
T1 construct: Brussels, Belgium; host or cells: CHO-K1
T1 sequence (P51679 1-360): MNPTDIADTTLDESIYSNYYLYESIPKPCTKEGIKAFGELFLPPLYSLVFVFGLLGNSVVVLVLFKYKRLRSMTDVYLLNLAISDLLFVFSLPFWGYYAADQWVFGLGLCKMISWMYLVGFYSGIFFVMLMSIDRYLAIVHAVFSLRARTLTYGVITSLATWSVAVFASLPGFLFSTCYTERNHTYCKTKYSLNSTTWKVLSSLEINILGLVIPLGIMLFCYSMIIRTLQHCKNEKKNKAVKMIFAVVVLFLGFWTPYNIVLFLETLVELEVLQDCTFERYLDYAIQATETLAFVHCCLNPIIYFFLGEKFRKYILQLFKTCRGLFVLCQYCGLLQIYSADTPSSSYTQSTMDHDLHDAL
Briefly: FMAT Whole Cell Binding Assay (FB-MDC binding to CHO-K1 cells expressing CCR4). To be noted: CHO-K1 cells stably expressing human recombinant CCR4; inhibition of FB-MDC fluorescent probe binding, two hours incubation at room temperature. On the procedure: FMAT Whole Cell Binding Assay
CHO-K1 cells stably expressing the human recombinant CCR4 receptor (Euroscreen; Brussels, Belgium) were cultured in NUT.MIX.F—12(HAM) medium with glutamax-1, containing 10% (v/v) foetal bovine serum and 400 μg ml^−1 geneticin.
Cells were harvested at approximately 70% confluence by treatment with a cell dissociation buffer, and seeded at 5×10^3 cells/100 μl culture medium into wells of a black Costar clear-bottomed 96-well microtitre plates. Plates were incubated overnight at 37° C. in 5% CO2 and used the following day.
Before use, the cell plates were washed twice with 100 μl Hanks balanced salt solution (HBSS). To each well was then added 65 μl of HBSS, 10 μL of 10% DMSO in HBSS±test compound and then 25 μL of 2.8 nM FB-MDC (Applied Biosystems). This fluorescent probe was prepared from a 10 μM stock in 0.08% (v/v) TFA/16% (v/v) acetonitrile, diluted into HBSS.
After two hours incubation in the dark at room temperature, the plates were analysed in an FMAT8100 reader (Applied Biosystems) to measure fluorescence that was associated with binding of FB-MDC to the cells. Compound activity was determined as an pIC50 [log(concentration of compound that results in 50% inhibition)], comparing fluorescence in control and background wells.
• Fluorescence (ctrl)=1200 • Fluorescence (bkg)=0
As a reminder, the IC50 is the concentration needed to halve the response being measured. For `COc1nc(Br)cnc1NS(=O)(=O)c1ccc(Cl)s1` [Example 1, N-(5-Bromo-3-methoxy-2-pyrazinyl)-5-chloro-2-thiophenesulphonamide], the IC50 was 39.8 nM. The same measure, in the same setting: the result for `COCCOc1nc(Br)cnc1NS(=O)(=O)c1ccc(Cl)s1` [Example 16, 5-Chloro-N-[5-bromo-3-(2-methoxyethoxy)-2-pyrazinyl]-2-thiophenesulphonamide] reads 631 nM; that for `Cc1cnc(NS(=O)(=O)c2ccc(Cl)s2)c(OCc2cccnc2)n1` [Example 23, 5-Chloro-N-[5-methyl-3-(3-pyridinylmethoxy)-2-pyrazinyl]-2-thiophenesulphonamide], 10 nM.
